Reference: patent publication US20060258576A1, “Gdnf-related neuropeptides” (Licentia, Ltd, priority 2003, published 2006)
Entries after “also recorded” stand apart in the source; their conditions may differ. No end group written: not given here.

Assays:
synaptic transmission = conditions: Qian et al (1997); cited from earlier work
hippocampus area CA1 = test: Extracellular recordings (pEPSPs, population spikes) in acute rat hippocampal brain slice preparation; assay type: cell-based; conditions: for excitatory synaptic input into primary cells in the rat CA1: acute rat hippocampal brain slice; for reversal of effects upon removal of peptide from the superfusate: washout; for pEPSPs, fraction of control (FIG. 4D) / pSpikes, fraction of control (FIG. 4C): 10 nM SEQ ID NO:11, 20 nM SEQ ID NO:9 and SEQ ID NO:15, 250 μM NEM, adult rat hippocampus
embryonic mouse tissues = test: Binding of I125-labeled peptides to embryonic mouse tissues (autoradiography, Tuj1 staining)
From the text: (§1) The binding of I^125-labeled peptides to embryonic and adult rodent tissues was studied in vitro. Chemically synthesized peptides containing an extra N-terminal tyrosine (Sigma-Genosys, Cambridge, UK) were labeled with lactoperoxidase (Trupp et al. (1995) J. Cell Biol. 130(1): 137-148). Specific activities obtained for each were 0.5-2.5×10^14 cpm/mmol, except for SEQ ID NO:9 10^13 cpm/mmol. From both E17 Wistar rat and E15 mouse embryos, kidneys, gut, pancreas and spinal cord were dissected. In addition, testes, ovaries, brain and adrenal glands of the embryonic mice were taken. The binding was performed and paraffin sections of embryonic tissues were processed as described (Partanen et al. (1987) Dev Biol 120(1): 186-197). Freshly cut adult rat brain slices of 1 mm were cut and incubated in 0.5-1 nmol/ml of ^125I-peptides, washed and processed for paraffin sections. Kodak (Rochester, N.Y.) NTB-2 emulsion was used for autoradiography and the samples were exposed from 3 to 12 weeks at +4° C. The sections were developed with Kodak D19 and stained with hematoxylin.
For immunohistochemical staining of tissues, paraffin sections were mounted with Immumount (Shandon, Pittsburgh, Pa.). Sections were stained with an anti-class III β-tubulin antibody (Tuj1; Covance Inc., Princeton, N.J.), which recognizes selectively neuronal cells. Staining was performed with Vectastain kit (Vector Laboratories, Burlingame, Calif.) according to manufacturer's instructions, except that the primary antibody (1:300) was incubated in +4° C. o/n.

adult rat brain = test: Binding of I125-labeled peptides to adult rat brain slices (autoradiography)
From the text: as §1
For immunohistochemical staining of tissues, paraffin sections were mounted with Immumount (Shandon, Pittsburgh, Pa.). Sections were stained with an anti-class III β-tubulin antibody (Tuj1; Covance Inc., Princeton, N.J.), which recognizes selectively neuronal cells. […]

ureteric branching = conditions: Sainio et al. (1997); cited from earlier work
primary neurons = conditions: U. Arumäe, personal communication; cited from earlier work
[1] = 10 nM peptide in the presence of 250 μM NEM
[2] = superfusion with 10-50 nM, 0.05 Hz stimulation of Schaffer collateral fibres, CA1, slices from P28-P35 rats

Molecule: neuropeptide Y [NPY]
- levels necessary for inhibition of synaptic transmission (synaptic transmission): 1 µM

Molecule: FPLPA(a) (FPLPA-NH2; not fully specified) [SEQ ID NO:9, GDNF precursor-derived neuropeptide; human, mouse, rat]
- presynaptic fiber volley (in words) (hippocampus area CA1; CA1, rat hippocampal slices): significant decrease
- change of pSPs (hippocampus area CA1; CA1, rat hippocampal slices, concentration not given): −24%
- excitatory synaptic input into primary cells in the rat CA1 (hippocampus area CA1): modulate
- reversal of effects upon removal of peptide from the superfusate (hippocampus area CA1): fully or almost fully reversed
- specific binding (embryonic mouse tissues; I125-labeled peptide with extra N-terminal tyrosine): specific binding
- tissue distribution of binding (embryonic mouse tissues; I125-labeled peptide, E15 mouse embryo tissues): restricted to embryonic mouse tissues outside the CNS; also recorded: bound to embryonic (E15) mouse tissues
- binding in testis (embryonic mouse tissues; embryonic mouse testis (FIG. 3 I, J)): binding to the interstitium
- distribution of binding versus neuronal β-tubulin (Tuj1) staining (embryonic mouse tissues; gut and metanephric kidney capsule (FIG. 3 E-H)): closely overlapped

Molecule: CCN1C(=O)C=CC1=O [NEM, N-ethylmaleimide, reference compound]
- pEPSPs, fraction of control (FIG. 4D) (hippocampus area CA1): increases
- pSpikes, fraction of control (FIG. 4C) (hippocampus area CA1): increases
- stimulus-evoked responses (hippocampus area CA1; NEM by bath perfusion, every slice recorded): increased

Molecule: LLEAPAEDHSL(a) (LLEAPAEDHSL-NH2; not fully specified) [SEQ ID NO:11, GDNF precursor-derived neuropeptide; mouse, rat]
- pEPSPs, fraction of control (FIG. 4D) (hippocampus area CA1): substantially increases
- pSpikes, fraction of control (FIG. 4C) (hippocampus area CA1): substantially increases
- pEPSPs when peptide is added to NEM (hippocampus area CA1; [1]): no further increase
- pSpikes when peptide is added to NEM (hippocampus area CA1; [1]): no further increase
- increase in presynaptic volley with or without NEM (FIG. 4 A, B) (hippocampus area CA1; 10 nM peptide, absence or presence of 250 μM NEM): seen only in the absence of NEM
- average increase in the presynaptic fiber volley (hippocampus area CA1; CA1, rat hippocampal slices): 34%
- excitatory synaptic input into primary cells in the rat CA1 (hippocampus area CA1): modulate
- effect on excitability in the presence of a Gi/o-blocking agent (hippocampus area CA1; in the presence of NEM (FIG. 4 B, C, D)): no effect
- effective concentrations on pEPSP and pSpike (FIG. 6) (hippocampus area CA1; increasing concentrations): nanomolar
- increase of pEPSPs (hippocampus area CA1; [2]): 30-40%
- increase of population spikes (pSPs) (hippocampus area CA1; [2]): 30-40%
- reversal of effects upon removal of peptide from the superfusate (hippocampus area CA1): fully or almost fully reversed
- specific binding (adult rat brain; I125-labeled peptide with extra N-terminal tyrosine, 0.5-1 nmol/ml): specific binding
- binding to adult rat brain slices (FIG. 3 A-D) (adult rat brain; I125-labeled peptide, sections containing the hippocampal area): extensive binding exclusively in adult rat brain; also recorded: intensive binding

Molecule: PYY3-36: peptide YY fragment, literature comparison
- levels necessary for inhibition of synaptic transmission (synaptic transmission): 1 µM

B1: glial cell line-derived neurotrophic factor (protein, UniProt P39905 78-211, looked up)
Glial cell line-derived …: SPDKQMAVLPRRERNRQAAAANPENSRGKGRRGQRGKNRGCVLTAIHLNVTDLGLGYETKEELIFRYCSGSCDAAETTYDKILKNLSRNRRLVSDKVGQACCRPIAFDDDLSFLDDNLVYHILRKHSAKRCGCI
notes: neurotrophic factor, literature comparison
- concentrations required for promotion of ureteric branching (ureteric branching): nanomolar
- concentrations required for maintenance of primary neurons (primary neurons): nanomolar
